Data as given in paper PMC10349829, “Functional characterization of the transient receptor potential melastatin 2 (TRPM2) cation channel from Nematostella vectensis reconstituted into lipid bilayer” (Scientific Reports, 2023).
Read-outs that look alike come from different tables or passages of the source.

Biological target: T1, nvTRPM2 (transient receptor potential melastatin 2) (Nematostella vectensis, UniProt A7T1N0)
T1 construct: gene TRPM2; purified and reconstituted into planar lipid bilayers
T1 sequence (A7T1N0 whole entry): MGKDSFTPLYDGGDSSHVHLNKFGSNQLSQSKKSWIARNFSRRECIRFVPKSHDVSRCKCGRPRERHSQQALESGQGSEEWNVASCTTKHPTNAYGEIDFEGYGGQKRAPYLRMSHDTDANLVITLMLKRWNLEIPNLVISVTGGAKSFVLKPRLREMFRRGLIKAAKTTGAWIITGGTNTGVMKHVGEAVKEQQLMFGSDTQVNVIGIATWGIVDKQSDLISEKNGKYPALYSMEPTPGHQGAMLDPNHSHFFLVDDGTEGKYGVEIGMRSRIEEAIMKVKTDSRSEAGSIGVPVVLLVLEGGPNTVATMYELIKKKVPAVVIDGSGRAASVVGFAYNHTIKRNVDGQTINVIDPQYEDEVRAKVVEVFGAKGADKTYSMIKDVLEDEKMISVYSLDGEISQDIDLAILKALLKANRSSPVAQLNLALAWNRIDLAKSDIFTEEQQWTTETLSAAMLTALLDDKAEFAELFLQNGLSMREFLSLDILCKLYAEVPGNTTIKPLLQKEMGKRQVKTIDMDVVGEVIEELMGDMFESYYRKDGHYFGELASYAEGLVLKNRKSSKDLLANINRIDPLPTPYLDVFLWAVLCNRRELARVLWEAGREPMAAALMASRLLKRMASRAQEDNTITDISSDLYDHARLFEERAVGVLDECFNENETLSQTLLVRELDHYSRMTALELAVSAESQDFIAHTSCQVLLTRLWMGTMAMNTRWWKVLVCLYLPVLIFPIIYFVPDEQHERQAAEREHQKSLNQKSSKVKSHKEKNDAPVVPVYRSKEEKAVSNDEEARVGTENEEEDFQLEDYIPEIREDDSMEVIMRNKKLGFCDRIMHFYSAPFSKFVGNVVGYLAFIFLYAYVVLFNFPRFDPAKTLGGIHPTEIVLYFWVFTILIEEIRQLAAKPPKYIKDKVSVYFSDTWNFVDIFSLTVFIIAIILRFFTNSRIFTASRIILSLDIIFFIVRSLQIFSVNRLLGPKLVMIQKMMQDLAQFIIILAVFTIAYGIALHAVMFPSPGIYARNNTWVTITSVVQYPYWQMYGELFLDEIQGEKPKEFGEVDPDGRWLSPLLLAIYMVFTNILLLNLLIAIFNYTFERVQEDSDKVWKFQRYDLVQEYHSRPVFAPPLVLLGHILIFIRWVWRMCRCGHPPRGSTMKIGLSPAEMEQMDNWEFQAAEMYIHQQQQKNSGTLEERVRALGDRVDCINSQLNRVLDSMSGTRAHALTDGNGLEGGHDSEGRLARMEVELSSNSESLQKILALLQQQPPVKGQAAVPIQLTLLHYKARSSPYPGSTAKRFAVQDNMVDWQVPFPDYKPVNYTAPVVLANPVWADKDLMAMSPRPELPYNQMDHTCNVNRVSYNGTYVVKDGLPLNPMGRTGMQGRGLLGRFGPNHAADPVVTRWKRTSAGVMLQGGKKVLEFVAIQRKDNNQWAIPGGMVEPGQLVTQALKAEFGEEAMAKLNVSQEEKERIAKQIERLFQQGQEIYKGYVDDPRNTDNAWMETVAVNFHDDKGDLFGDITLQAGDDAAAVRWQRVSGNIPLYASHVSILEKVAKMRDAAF
Test: single-channel recording of purified channel in planar lipid bilayers (activation)
Type: biochemical

SMILES | EC50 (read-out: EC50) | EC50
Nc1ncnc2c1ncn2[C@@H]1O[C@H](COP(=O)(O)OP(=O)(O)OC[C@H]2OC(O)[C@H](O)[C@@H]2O)[C@@H](O)[C@H]1O (some centres unmarked) [ADPR] | ~1000 nM | –
Nc1ncnc2c1ncn2[C@@H]1O[C@H](COP(=O)(O)OP(=O)(O)OC[C@H]2OC(O)[C@H](O)[C@@H]2O)[C@@H](O)[C@H]1OP(=O)(O)O (some centres unmarked) [ADPRP] | – | ~200 nM
